Source: patent EP0745599A2, “1-(3-Heterocyclylphenyl)-s-triazine-2,4,6-oxo or thiotrione herbicidal agents” (American Cyanamid Company, priority 1995, dated 1996)

Tests used:
Format in all cases: in vivo
Details in all cases: rated four to five weeks after treatment
ZEA MAYS L. = assay: Preemergence herbicidal evaluation, ZEAMX (Corn, Field)
In short: (§1)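 Visual 0-9 ratings versus control covering stand, vigor, malformation, size and chlorosis, scored 4-5 weeks post-treatment. Test compound in aqueous acetone applied preemergence to freshly seeded soil cups at roughly 0.125-0.50 kg/ha, then kept under standard greenhouse conditions.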

[1] = system: TRITICUM AESTIVUM, CV. APOLLO; assay: Preemergence herbicidal evaluation, TRZAWO (Wheat, Winter, CV. APOLLO)
In short: as §1

CASSIA OBTUSIFOLIA, L. [2] = assay: Postemergence herbicidal evaluation, CASOB (Sicklepod)
Experimental: (§2) In the tests, seedling plants are grown in jiffy flats for about two weeks. The test compounds are dispersed in 50/50 acetone/water mixtures containing 0.5% TWEEN®20, a polyoxyethylene sorbitan monolaurate surfactant of Atlas Chemical Industries, in sufficient quantities to provide the equivalent of about 0.125 kg to 0.500 kg per hectare of active compound when applied to the plants through a spray nozzle operating at 40 psi for a predetermined time. After spraying, the plants are placed on greenhouse benches and are cared for in the usual manner, commensurate with conventional greenhouse practices. From four to five weeks after treatment, the seedling plants are examined and rated according to the rating system set forth below. Where more than one test is involved for a given compound, the data are averaged.
(§3) Results of herbicide evaluation are expressed on a rating scale (0-9). The scale is based upon a visual observation of plant stand, vigor, malformation, size, chlorosis and overall plant appearance as compared with a control.

GALIUM APARINE = assay: Preemergence herbicidal evaluation, GALAP (Galium)
In short: as §1

[3] = system: AMBROSIA ARTEMISIIFOLIA, L.; assay: Preemergence herbicidal evaluation, AMBEL (Ragweed, Common)
In short: as §1

CHENOPODIUM ALBUM, L. [4] = assay: Preemergence herbicidal evaluation, CHEAL (Lambsquarters, Common)
In short: as §1

[5] = system: SETARIA VIRIDIS, (L) BEAU; assay: Postemergence herbicidal evaluation, SETVI (Foxtail, Green)
Experimental: as §2, §3

[6] = system: ORYZA SATIVA, L. TEBONNET; assay: Preemergence herbicidal evaluation, ORYSAT (Rice, Tebonnet)
In short: as §1

[7] = system: ORYZA SATIVA, L. TEBONNET; assay: Postemergence herbicidal evaluation, ORYSAT (Rice, Tebonnet)
Experimental: as §2, §3

[8] = system: SETARIA VIRIDIS, (L) BEAU; assay: Preemergence herbicidal evaluation, SETVI (Foxtail, Green)
In short: as §1

[9] = system: TRITICUM AESTIVUM, CV. APOLLO; assay: Postemergence herbicidal evaluation, TRZAWO (Wheat, Winter, CV. APOLLO)
Experimental: as §2, §3

[10] = system: ECHINOCHLOA CRUS-GALLI, (L) BEAU; assay: Preemergence herbicidal evaluation, ECHCG (Barnyardgrass)
In short: as §1

[11] = system: ABUTILON THEOPHRASTI, MEDIC.; assay: Preemergence herbicidal evaluation, ABUTH (Velvetleaf)
In short: as §1

[12] = system: GLYCINE MAX(L)MERR. CV. WILLIAMS; assay: Preemergence herbicidal evaluation, GLXMAW (Soybean, Williams)
In short: as §1

CASSIA OBTUSIFOLIA, L. [13] = assay: Preemergence herbicidal evaluation, CASOB (Sicklepod)
In short: as §1

[14] = system: ECHINOCHLOA CRUS-GALLI, (L) BEAU; assay: Postemergence herbicidal evaluation, ECHCG (Barnyardgrass)
Experimental: as §2, §3

IPOMOEA SPP. = assay: Preemergence herbicidal evaluation, IPOSS (Morningglory Spp.)
In short: as §1

CHENOPODIUM ALBUM, L. [15] = assay: Postemergence herbicidal evaluation, CHEAL (Lambsquarters, Common)
Experimental: as §2, §3

Q: Which results are given for CCOC(=O)Cn1c(=O)n(CC(=O)OC(C)(C)C)c(=O)n(-c2ccc(F)c(N3C(=O)C4=C(CCCC4)C3=O)c2)c1=O [Compound 8, 5-[3-(1-Cyclohexene-1,2-dicarboximido)-4-fluorophenyl]dihydro-2,4,6-trioxo-s-tri-azine-1,3(2H,4H)-diacetic acid, 1-tert-butyl, ethyl ester]?
A: Herbicide rating (0-9) ZEAMX (ZEA MAYS L.; 0.125 kg/ha): 0.0; Herbicide rating (0-9) ZEAMX (ZEA MAYS L.; 0.250 kg/ha): 0.0; Herbicide rating (0-9) ZEAMX (ZEA MAYS L.; 0.500 kg/ha): 0.0; Herbicide rating (0-9) TRZAWO ([1]; 0.125 kg/ha): 0.0; Herbicide rating (0-9) TRZAWO ([1]; 0.250 kg/ha): 0.0; Herbicide rating (0-9) TRZAWO ([1]; 0.500 kg/ha): 0.0; Herbicide rating (0-9) CASOB (CASSIA OBTUSIFOLIA, L. [2]; 0.125 kg/ha): 0.0; Herbicide rating (0-9) CASOB (CASSIA OBTUSIFOLIA, L. [2]; 0.250 kg/ha): 0.0; Herbicide rating (0-9) CASOB (CASSIA OBTUSIFOLIA, L. [2]; 0.500 kg/ha): 0.0; Herbicide rating (0-9) GALAP (GALIUM APARINE; 0.125 kg/ha): 0.0; Herbicide rating (0-9) GALAP (GALIUM APARINE; 0.250 kg/ha): 0.0; Herbicide rating (0-9) GALAP (GALIUM APARINE; 0.500 kg/ha): 0.0; Herbicide rating (0-9) AMBEL ([3]; 0.125 kg/ha): 0.0; Herbicide rating (0-9) AMBEL ([3]; 0.250 kg/ha): 0.0; Herbicide rating (0-9) AMBEL ([3]; 0.500 kg/ha): 0.0; Herbicide rating (0-9) CHEAL (CHENOPODIUM ALBUM, L. [4]; 0.125 kg/ha): 0.0; Herbicide rating (0-9) CHEAL (CHENOPODIUM ALBUM, L. [4]; 0.250 kg/ha): 0.0; Herbicide rating (0-9) CHEAL (CHENOPODIUM ALBUM, L. [4]; 0.500 kg/ha): 0.0; Herbicide rating (0-9) SETVI ([5]; 0.125 kg/ha): 0.0; Herbicide rating (0-9) SETVI ([5]; 0.250 kg/ha): 0.0; Herbicide rating (0-9) SETVI ([5]; 0.500 kg/ha): 0.0; Herbicide rating (0-9) ORYSAT ([6]; 0.125 kg/ha): 0.0; Herbicide rating (0-9) ORYSAT ([6]; 0.250 kg/ha): 0.0; Herbicide rating (0-9) ORYSAT ([6]; 0.500 kg/ha): 0.0; Herbicide rating (0-9) ORYSAT ([7]; 0.125 kg/ha): 1.5; Herbicide rating (0-9) ORYSAT ([7]; 0.250 kg/ha): 1.5; Herbicide rating (0-9) ORYSAT ([7]; 0.500 kg/ha): 1.5; Herbicide rating (0-9) SETVI ([8]; 0.125 kg/ha): 0.0; Herbicide rating (0-9) SETVI ([8]; 0.250 kg/ha): 0.0; Herbicide rating (0-9) SETVI ([8]; 0.500 kg/ha): 0.0; Herbicide rating (0-9) TRZAWO ([9]; 0.125 kg/ha): 0.5; Herbicide rating (0-9) TRZAWO ([9]; 0.250 kg/ha): 0.5; Herbicide rating (0-9) TRZAWO ([9]; 0.500 kg/ha): 0.5; Herbicide rating (0-9) ECHCG ([10]; 0.125 kg/ha): 0.0; Herbicide rating (0-9) ECHCG ([10]; 0.250 kg/ha): 0.0; Herbicide rating (0-9) ECHCG ([10]; 0.500 kg/ha): 0.0; Herbicide rating (0-9) ABUTH ([11]; 0.125 kg/ha): 0.0; Herbicide rating (0-9) ABUTH ([11]; 0.250 kg/ha): 0.0; Herbicide rating (0-9) ABUTH ([11]; 0.500 kg/ha): 0.0; Herbicide rating (0-9) GLXMAW ([12]; 0.125 kg/ha): 0.0; Herbicide rating (0-9) GLXMAW ([12]; 0.250 kg/ha): 0.0; Herbicide rating (0-9) GLXMAW ([12]; 0.500 kg/ha): 0.0; Herbicide rating (0-9) CASOB (CASSIA OBTUSIFOLIA, L. [13]; 0.125 kg/ha): 0.0; Herbicide rating (0-9) CASOB (CASSIA OBTUSIFOLIA, L. [13]; 0.250 kg/ha): 0.0; Herbicide rating (0-9) CASOB (CASSIA OBTUSIFOLIA, L. [13]; 0.500 kg/ha): 0.0; Herbicide rating (0-9) ECHCG ([14]; 0.125 kg/ha): 0.0; Herbicide rating (0-9) ECHCG ([14]; 0.250 kg/ha): 0.0; Herbicide rating (0-9) ECHCG ([14]; 0.500 kg/ha): 0.0; Herbicide rating (0-9) IPOSS (IPOMOEA SPP.; 0.125 kg/ha): 0.0; Herbicide rating (0-9) IPOSS (IPOMOEA SPP.; 0.250 kg/ha): 0.0; Herbicide rating (0-9) IPOSS (IPOMOEA SPP.; 0.500 kg/ha): 0.0

Q: How did the “Herbicide rating (0-9) ZEAMX” value (ZEA MAYS L.; 0.125 kg/ha) turn out when CC(C)OC(=O)Cn1c(=O)n(C)c(=O)n(-c2cc(N3C(=O)c4cccc(F)c4C3=O)c(F)cc2Cl)c1=O [Compound 11, Isopropyl 3-[2-chloro-4-fluoro-5-(3-fluoro-phthalimido)phenyl]tetrahydro-5-methyl-2,4,6-trioxo-s-triazine-1(2H)-acetate] was run?
A: 0.0

Q: What about the “Herbicide rating (0-9) ZEAMX” value (ZEA MAYS L.; 0.250 kg/ha) of the same compound?
A: 0.0

Q: And the “Herbicide rating (0-9) ZEAMX” value (ZEA MAYS L.; 0.500 kg/ha)?
A: 0.0

Q: What about the “Herbicide rating (0-9) TRZAWO” value ([1]; 0.125 kg/ha) of the same compound?
A: 0.0

Q: And the “Herbicide rating (0-9) TRZAWO” value ([1]; 0.250 kg/ha)?
A: 0.0

Q: And the “Herbicide rating (0-9) TRZAWO” value ([1]; 0.500 kg/ha)?
A: 0.0

Q: And the “Herbicide rating (0-9) AMBEL” value ([3]; 0.125 kg/ha)?
A: 0.0

Q: And the “Herbicide rating (0-9) AMBEL” value ([3]; 0.250 kg/ha)?
A: 0.0

Q: And the “Herbicide rating (0-9) AMBEL” value ([3]; 0.500 kg/ha)?
A: 0.0

Q: And the “Herbicide rating (0-9) CHEAL” value (CHENOPODIUM ALBUM, L. [4]; 0.125 kg/ha)?
A: 9.0

Q: What about the “Herbicide rating (0-9) CHEAL” value (CHENOPODIUM ALBUM, L. [4]; 0.250 kg/ha) of the same compound?
A: 9.0

Q: And the “Herbicide rating (0-9) CHEAL” value (CHENOPODIUM ALBUM, L. [4]; 0.500 kg/ha)?
A: 9.0

Q: What about the “Herbicide rating (0-9) CHEAL” value (CHENOPODIUM ALBUM, L. [15]; 0.125 kg/ha) of the same compound?
A: 9.0

Q: What about the “Herbicide rating (0-9) CHEAL” value (CHENOPODIUM ALBUM, L. [15]; 0.250 kg/ha) of the same compound?
A: 9.0

Q: What about the “Herbicide rating (0-9) CHEAL” value (CHENOPODIUM ALBUM, L. [15]; 0.500 kg/ha) of the same compound?
A: 9.0

Q: And the “Herbicide rating (0-9) ORYSAT” value ([6]; 0.125 kg/ha)?
A: 0.0

Q: What about the “Herbicide rating (0-9) ORYSAT” value ([6]; 0.250 kg/ha) of the same compound?
A: 0.0

Q: What about the “Herbicide rating (0-9) ORYSAT” value ([6]; 0.500 kg/ha) of the same compound?
A: 0.0

Q: What about the “Herbicide rating (0-9) SETVI” value ([8]; 0.125 kg/ha) of the same compound?
A: 0.0

Q: What about the “Herbicide rating (0-9) SETVI” value ([8]; 0.250 kg/ha) of the same compound?
A: 0.0

Q: What about the “Herbicide rating (0-9) SETVI” value ([8]; 0.500 kg/ha) of the same compound?
A: 0.0

Q: What about the “Herbicide rating (0-9) ECHCG” value ([10]; 0.125 kg/ha) of the same compound?
A: 0.0

Q: And the “Herbicide rating (0-9) ECHCG” value ([10]; 0.250 kg/ha)?
A: 0.0

Q: And the “Herbicide rating (0-9) ECHCG” value ([10]; 0.500 kg/ha)?
A: 0.0

Q: And the “Herbicide rating (0-9) GLXMAW” value ([12]; 0.125 kg/ha)?
A: 0.0

Q: And the “Herbicide rating (0-9) GLXMAW” value ([12]; 0.250 kg/ha)?
A: 0.0

Q: What about the “Herbicide rating (0-9) GLXMAW” value ([12]; 0.500 kg/ha) of the same compound?
A: 0.0

Q: And the “Herbicide rating (0-9) CASOB” value (CASSIA OBTUSIFOLIA, L. [13]; 0.125 kg/ha)?
A: 0.0

Q: What about the “Herbicide rating (0-9) CASOB” value (CASSIA OBTUSIFOLIA, L. [13]; 0.250 kg/ha) of the same compound?
A: 0.0

Q: What about the “Herbicide rating (0-9) CASOB” value (CASSIA OBTUSIFOLIA, L. [13]; 0.500 kg/ha) of the same compound?
A: 0.0

Q: And the “Herbicide rating (0-9) ECHCG” value ([14]; 0.125 kg/ha)?
A: 3.0

Q: And the “Herbicide rating (0-9) ECHCG” value ([14]; 0.250 kg/ha)?
A: 3.0

Q: And the “Herbicide rating (0-9) ECHCG” value ([14]; 0.500 kg/ha)?
A: 3.0

Q: What about the “Herbicide rating (0-9) IPOSS” value (IPOMOEA SPP.; 0.125 kg/ha) of the same compound?
A: 0.0

Q: And the “Herbicide rating (0-9) IPOSS” value (IPOMOEA SPP.; 0.250 kg/ha)?
A: 0.0

Q: And the “Herbicide rating (0-9) IPOSS” value (IPOMOEA SPP.; 0.500 kg/ha)?
A: 0.0
